Test results published in US9073855B2, “BCL-2 selective apoptosis-inducing agents for the treatment of cancer and immune diseases” (AbbVie Inc., priority 2008, dated 2015).

Tests used:
[1] = molecular target: GST-Bcl-XL (Homo sapiens, UniProt Q07817); experiment: TR-FRET binding assay, GST-Bcl-XL with F-Bak peptide probe; details: TR-FRET Binding Affinity
In short: (§1)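 Compounds were serially diluted in DMSO from a 50 μM starting solution (2× the starting concentration; 10% DMSO). Plates were incubated for 3 h at room temperature, and TR-FRET was read with 340/35 nm excitation and emission at 520/525 nm (F-Bak) and 495/510 nm (Tb antibody). Ki values were calculated using Wang's competitive-binding equation.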

[2] = molecular target: GST-Bcl-2 (Homo sapiens, UniProt P10415); experiment: TR-FRET binding assay, GST-Bcl-2 with F-Bak peptide probe; details: for Ki: TR-FRET Binding Affinity
GST-Bcl-2, sequence (P10415 whole entry): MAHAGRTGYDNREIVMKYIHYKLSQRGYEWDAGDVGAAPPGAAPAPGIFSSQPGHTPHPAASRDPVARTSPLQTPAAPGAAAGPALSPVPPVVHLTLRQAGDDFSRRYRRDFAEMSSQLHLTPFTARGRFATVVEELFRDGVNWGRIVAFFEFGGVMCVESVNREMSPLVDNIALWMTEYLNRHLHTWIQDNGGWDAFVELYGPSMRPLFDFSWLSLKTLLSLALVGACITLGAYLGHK
In short: as §1

[3] = GST-Bcl-XL, F-Bak peptide probe
[4] = TR-FRET, Bcl-XL Ki divided by Bcl-2 Ki

GST-Bcl-XL, sequence (Q07817 whole entry): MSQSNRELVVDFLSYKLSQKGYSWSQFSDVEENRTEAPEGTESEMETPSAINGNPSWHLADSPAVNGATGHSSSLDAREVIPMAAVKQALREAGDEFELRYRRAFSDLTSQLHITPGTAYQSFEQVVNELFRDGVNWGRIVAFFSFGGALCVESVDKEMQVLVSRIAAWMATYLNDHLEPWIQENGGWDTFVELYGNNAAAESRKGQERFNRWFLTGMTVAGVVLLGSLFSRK

## CC1(C)CCC(c2ccc(Cl)cc2)=C(CN2CCN(c3ccc(C(=O)NS(=O)(=O)c4ccc(NCCCN5CCOCC5)c([N+](=O)[O-])c4)c(Oc4ccccc4)c3)CC2)C1 [Example 19, 4-(4-{[2-(4-chlorophenyl)-5,5-dimethylcyclohex-1-en-1-yl]methyl}piperazin-1-yl)-N-({4-[(3-morpholin-4-ylpropyl)amino]-3-nitrophenyl}sulfonyl)-2-phenoxybenzamide]
[1]; [3]
  Ki: 20 nM
[2]; GST-Bcl-2, F-Bak peptide probe
  Ki: 0.847 nM

## CC1(C)CCC(CN2CCN(c3ccc(C(=O)NS(=O)(=O)c4cnc(OCC5(F)CCOCC5)c(F)c4)c(Oc4cccc5[nH]ncc45)c3)CC2)=C(c2ccc(Cl)cc2)C1 [Example 416, 4-(4-{[2-(4-chlorophenyl)-4,4-dimethylcyclohex-1-en-1-yl]methyl}piperazin-1-yl)-N-({5-fluoro-6-[(4-fluorotetrahydro-2H-pyran-4-yl)methoxy]pyridin-3-yl}sulfonyl)-2-(1H-indazol-4-yloxy)benzamide]
[1]; [3]
  Ki: 59.1 nM
[2]; GST-Bcl-2, F-Bak peptide probe
  Ki: 0.023 nM

## CN1CCN(CCNc2ccc(S(=O)(=O)NC(=O)c3ccc(N4CCN(Cc5ccccc5-c5ccc(Cl)cc5)CC4)cc3Oc3ccccc3)cc2[N+](=O)[O-])CC1 [Example 85, 4-{4-[(4′-chloro-1,1′-biphenyl-2-yl)methyl]piperazin-1-yl}-N-[(4-{[2-(4-methylpiperazin-1-yl)ethyl]amino}-3-nitrophenyl)sulfonyl]-2-phenoxybenzamide]
[1]; [3]
  Ki: 11.5 nM
[2]; GST-Bcl-2, F-Bak peptide probe
  Ki: 0.236 nM

## CN(C)CCCNc1ccc(S(=O)(=O)NC(=O)c2ccc(N3CCN(CC4=C(c5ccc(Cl)cc5)CCC(C)(C)C4)CC3)cc2Oc2ccc3[nH]ccc3c2)cc1[N+](=O)[O-] [Example 51, 4-(4-{[2-(4-chlorophenyl)-5,5-dimethylcyclohex-1-en-1-yl]methyl}piperazin-1-yl)-N-[(4-{[3-(dimethylamino)propyl]amino}-3-nitrophenyl)sulfonyl]-2-(1H-indol-5-yloxy)benzamide]
[1]; [3]
  Ki: 15.6 nM
[2]; GST-Bcl-2, F-Bak peptide probe
  Ki: 0.252 nM

## CC1(C)CCC(CN2CCN(c3ccc(C(=O)NS(=O)(=O)c4cnc(OCCn5ccnc5)c(Cl)c4)c(Oc4cccc5[nH]ncc45)c3)CC2)=C(c2ccc(Cl)cc2)C1 [Example 485, N-({5-chloro-6-[2-(1H-imidazol-1-yl)ethoxy]pyridin-3-yl}sulfonyl)-4-(4-{[2-(4-chlorophenyl)-4,4-dimethylcyclohex-1-en-1-yl]methyl}piperazin-1-yl)-2-(1H-indazol-4-yloxy)benzamide]
[1]
  Ki: 54.2 nM
[2]
  Ki: 0.167 nM
[2]; [4]
  Binding selectivity ratio (Bcl-XL Ki/Bcl-2 Ki): 324.0

## CC1(C)CCC(CN2CCN(c3ccc(C(=O)NS(=O)(=O)c4cnc(OCC5(F)CCN(C6COC6)CC5)c(Cl)c4)c(Oc4cccc5[nH]ncc45)c3)CC2)=C(c2ccc(Cl)cc2)C1 [Example 528, N-[(5-chloro-6-{[4-fluoro-1-(oxetan-3-yl)piperidin-4-yl]methoxy}pyridin-3-yl)sulfonyl]-4-(4-{[2-(4-chlorophenyl)-4,4-dimethylcyclohex-1-en-1-yl]methyl}piperazin-1-yl)-2-(1H-indazol-4-yloxy)benzamide]
[1]
  Ki: 3.67 nM
[2]
  Ki: < 0.01 nM
[2]; [4]
  Binding selectivity ratio (Bcl-XL Ki/Bcl-2 Ki): >366.9

## CN(C)CC(=O)N1CCO[C@H](COc2ncc(S(=O)(=O)NC(=O)c3ccc(N4CCN(CC5=C(c6ccc(Cl)cc6)CC(C)(C)CC5)CC4)cc3Oc3cccc4[nH]ncc34)cc2Cl)C1 [Example 425, N-[(5-chloro-6-{[(2S)-4-(N,N-dimethylglycyl)morpholin-2-yl]methoxy}pyridin-3-yl)sulfonyl]-4-(4-{[2-(4-chlorophenyl)-4,4-dimethylcyclohex-1-en-1-yl]methyl}piperazin-1-yl)-2-(1H-indazol-4-yloxy)benzamide]
[1]; [3]
  Ki: 3.99 nM
[2]; GST-Bcl-2, F-Bak peptide probe
  Ki: 0.003 nM
[2]; ratio of TR-FRET Ki values, Bcl-XL over Bcl-2
  Binding selectivity ratio (Bcl-XL Ki/Bcl-2 Ki): 1282.2
